Measured values as given in patent publication EP4685153A1 (priority 2023, dated 2024).
Residues, ends and D or L forms follow the SMILES beside them. *: point of attachment. Succinyl(4-O-cholesteryl) = CC(C)CCC[C@@H](C)[C@H]1CC[C@H]2[C@@H]3CC=C4C[C@@H](OC(=O)CCC(=O)*)CC[C@]4(C)[C@H]3CC[C@]12C

Experiments:
[1] = test system: T20-resistant mutant strains (HIV-1 strain NL4-3); conditions: T20-resistant mutant strains ( strain NL4-3, 48 h)
[2] = test system: HIV-1 strain NL4-3 pseudovirus; conditions: for IC50: strain NL4-3 pseudovirus
[3] = test system: HIV-1 strain SG3.1 living virus; conditions: for IC50: strain SG3.1 living virus
[4] = test system: HIV-1 strain JRFL pseudovirus; conditions: for IC50: strain JRFL pseudovirus
[5] = Circular dichroism of lipopeptide alone; format: physicochemical; conditions: CD, 10 µM in PBS pH 7.2
[6] = target: N44 (Human immunodeficiency virus type 1 group M subtype B, UniProt P04578); assay: Circular dichroism of lipopeptide complex with target sequence N44; conditions: CD; for Tm value of the mixture with N44: [θ]222, 20-98 °C at 2 °C/min; for α-helix content of the mixture with N44: lipopeptide and N44 each 10 µM in PBS pH 7.2
[7] = LP-124 versus LP-122, LP-125 versus LP-123

Sequence of N44 (P04578 538-581): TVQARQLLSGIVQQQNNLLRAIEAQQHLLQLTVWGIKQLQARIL

SMILES | IC50 [1] [pM] | IC50 [2] [pM] | IC50 [3] [pM] | IC50 [4] [pM] | α-helix content, lipopeptide alone [5] [%] | Tm value of the mixture with N44 [6] [°C] | α-helix content of the mixture with N44 [6] [%] | activity increased as compared to its template, NL4-3 pseudovirus [2, 7] | activity increased as compared to its template, SG3.1 living virus [3, 7] [folds] | activity increased as compared to its template, JRFL pseudovirus [4, 7] [folds]
CC[C@H](C)[C@H](NC(=O)[C@H](CCCCN)NC(=O)[C@H](CCC(N)=O)NC(=O)[C@H](CCC(=O)O)NC(=O)[C@H](Cc1ccc(O)cc1)NC(C)=O)C(=O)N[C@@H](CCC(=O)O)C(=O)N[C@@H](CCC(=O)O)C(=O)N[C@@H](CC(C)C)C(=O)N[C@@H](CC(C)C)C(=O)N[C@@H](CCCCN)C(=O)N[C@@H](CCCCN)C(=O)N[C@@H](C)C(=O)N[C@@H](CCC(=O)O)C(=O)N[C@@H](CCC(=O)O)C(=O)N[C@@H](CCC(N)=O)C(=O)N[C@@H](CCC(N)=O)C(=O)N[C@@H](CCCCN)C(=O)N[C@@H](CCCCN)C(=O)N[C@@H](CC(N)=O)C(=O)N[C@@H](CCC(=O)O)C(=O)N[C@@H](CCC(=O)O)C(=O)N[C@@H](CC(C)C)C(=O)N[C@@H](CCCCN)C(=O)N[C@@H](CCCCN)C(=O)N[C@@H](CC(C)C)C(=O)N[C@@H](CCC(=O)O)C(=O)N[C@@H](CCCCNC(=O)CCC(=O)O[C@H]1CC[C@@]2(C)C(=CC[C@H]3[C@@H]4CC[C@H]([C@H](C)CCCC(C)C)[C@@]4(C)CC[C@@H]32)C1)C(N)=O [LP-98, reference compound] (Ac-YEQKIEELLKKAEEQQKKNEELKKLEK(Succinyl(4-O-cholesteryl))-NH2) | 2660 |  |  |  |  |  |  |  |  | 
CC[C@H](C)[C@H](NC(=O)[C@H](CCCCN)NC(=O)[C@H](CCCCN)NC(=O)[C@H](CCC(=O)O)NC(=O)[C@H](Cc1c[nH]c2ccccc12)NC(=O)[C@H](CCC(=O)O)NC(=O)[C@H](CCC(=O)O)NC(=O)[C@H](Cc1c[nH]c2ccccc12)NC(=O)[C@@H](NC(=O)[C@H](CCSC)NC(=O)[C@H](CCC(=O)O)NC(C)=O)[C@@H](C)O)C(=O)N[C@@H](CCC(=O)O)C(=O)N[C@@H](CCC(=O)O)C(=O)N[C@@H](CC(C)C)C(=O)N[C@@H](CCC(=O)O)C(=O)N[C@@H](CCCCN)C(=O)N[C@@H](CCCCN)C(=O)N[C@H](C(=O)N[C@@H](CCC(=O)O)C(=O)N[C@@H](CCC(=O)O)C(=O)N[C@@H](CC(C)C)C(=O)N[C@@H](CC(C)C)C(=O)N[C@@H](CCCCN)C(=O)N[C@@H](CCCCN)C(=O)N[C@@H](C)C(=O)N[C@@H](CCC(=O)O)C(=O)N[C@@H](CCC(=O)O)C(=O)N[C@@H](CCC(N)=O)C(=O)N[C@@H](CCC(N)=O)C(=O)N[C@@H](CCCCN)C(=O)N[C@@H](CCCCN)C(=O)N[C@@H](CC(N)=O)C(=O)N[C@@H](CCC(=O)O)C(=O)N[C@@H](C)C(=O)N[C@@H](C)C(=O)N[C@@H](C)C(=O)N[C@@H](CCCCN)C(=O)N[C@@H](CCCCNC(=O)CCC(=O)O[C@H]1CC[C@@]2(C)C(=CC[C@H]3[C@@H]4CC[C@H]([C@H](C)CCCC(C)C)[C@@]4(C)CC[C@@H]32)C1)C(N)=O)[C@@H](C)CC [LP-121] (Ac-EMTWEEWEKKIEELEKKIEELLKKAEEQQKKNEAAAKK(Succinyl(4-O-cholesteryl))-NH2) |  | 52 | 9.88 | 42.4 | 69 | > 98 | 81 |  |  | 
CC[C@H](C)[C@H](NC(=O)[C@H](CCCCN)NC(=O)[C@H](CCCCN)NC(=O)[C@H](CCC(=O)O)NC(=O)[C@H](Cc1c[nH]c2ccccc12)NC(=O)[C@H](CCC(=O)O)NC(=O)[C@H](CCC(=O)O)NC(=O)[C@H](Cc1c[nH]c2ccccc12)NC(=O)[C@@H](NC(C)=O)[C@@H](C)O)C(=O)N[C@@H](CCC(=O)O)C(=O)N[C@@H](CCC(=O)O)C(=O)N[C@@H](CC(C)C)C(=O)N[C@@H](CCC(=O)O)C(=O)N[C@@H](CCCCN)C(=O)N[C@@H](CCCCN)C(=O)N[C@H](C(=O)N[C@@H](CCC(=O)O)C(=O)N[C@@H](CCC(=O)O)C(=O)N[C@@H](CC(C)C)C(=O)N[C@@H](CC(C)C)C(=O)N[C@@H](CCCCN)C(=O)N[C@@H](CCCCN)C(=O)N[C@@H](C)C(=O)N[C@@H](CCC(=O)O)C(=O)N[C@@H](CCC(=O)O)C(=O)N[C@@H](CCC(N)=O)C(=O)N[C@@H](CCC(N)=O)C(=O)N[C@@H](CCCCN)C(=O)N[C@@H](CCCCN)C(=O)N[C@@H](CC(N)=O)C(=O)N[C@@H](CCC(=O)O)C(=O)N[C@@H](CCC(N)=O)C(=O)N[C@@H](CCC(=O)O)C(=O)N[C@@H](C)C(=O)N[C@@H](C)C(=O)N[C@@H](C)C(=O)N[C@@H](CCCCN)C(=O)N[C@@H](CCCCNC(=O)CCC(=O)O[C@H]1CC[C@@]2(C)C(=CC[C@H]3[C@@H]4CC[C@H]([C@H](C)CCCC(C)C)[C@@]4(C)CC[C@@H]32)C1)C(N)=O)[C@@H](C)CC [LP-122] (Ac-TWEEWEKKIEELEKKIEELLKKAEEQQKKNEQEAAAKK(Succinyl(4-O-cholesteryl))-NH2) |  | 22.5 | 9.05 | 41.5 | 65 | > 98 | 81 |  |  | 
CC[C@H](C)[C@H](NC(=O)[C@H](CCCCN)NC(=O)[C@H](CCCCN)NC(=O)[C@H](CCC(=O)O)NC(=O)[C@H](Cc1ccc(O)cc1)NC(=O)[C@H](CCC(=O)O)NC(=O)[C@H](CCC(=O)O)NC(=O)[C@H](Cc1ccc(O)cc1)NC(=O)[C@@H](NC(C)=O)[C@@H](C)O)C(=O)N[C@@H](CCC(=O)O)C(=O)N[C@@H](CCC(=O)O)C(=O)N[C@@H](CC(C)C)C(=O)N[C@@H](CCC(=O)O)C(=O)N[C@@H](CCCCN)C(=O)N[C@@H](CCCCN)C(=O)N[C@H](C(=O)N[C@@H](CCC(=O)O)C(=O)N[C@@H](CCC(=O)O)C(=O)N[C@@H](CC(C)C)C(=O)N[C@@H](CC(C)C)C(=O)N[C@@H](CCCCN)C(=O)N[C@@H](CCCCN)C(=O)N[C@@H](C)C(=O)N[C@@H](CCC(=O)O)C(=O)N[C@@H](CCC(=O)O)C(=O)N[C@@H](CCC(N)=O)C(=O)N[C@@H](CCC(N)=O)C(=O)N[C@@H](CCCCN)C(=O)N[C@@H](CCCCN)C(=O)N[C@@H](CC(N)=O)C(=O)N[C@@H](CCC(=O)O)C(=O)N[C@@H](CCC(N)=O)C(=O)N[C@@H](CCC(=O)O)C(=O)N[C@@H](C)C(=O)N[C@@H](C)C(=O)N[C@@H](C)C(=O)N[C@@H](CCCCN)C(=O)N[C@@H](CCCCNC(=O)CCC(=O)O[C@H]1CC[C@@]2(C)C(=CC[C@H]3[C@@H]4CC[C@H]([C@H](C)CCCC(C)C)[C@@]4(C)CC[C@@H]32)C1)C(N)=O)[C@@H](C)CC [LP-124] (Ac-TYEEYEKKIEELEKKIEELLKKAEEQQKKNEQEAAAKK(Succinyl(4-O-cholesteryl))-NH2) |  | 2.07 | 1.06 | 5.93 | 64 | 86 | 79 | about 11 folds | ~9 | ~7
CC[C@H](C)[C@H](NC(=O)[C@H](CCCCN)NC(=O)[C@H](CCCCN)NC(=O)[C@H](CCC(=O)O)NC(=O)[C@H](Cc1ccc(O)cc1)NC(=O)[C@H](CCC(=O)O)NC(=O)[C@H](CCC(=O)O)NC(=O)[C@H](Cc1ccc(O)cc1)NC(=O)[C@H](CCC(=O)O)NC(C)=O)C(=O)N[C@@H](CCC(=O)O)C(=O)N[C@@H](CCC(=O)O)C(=O)N[C@@H](CC(C)C)C(=O)N[C@@H](CCC(=O)O)C(=O)N[C@@H](CCCCN)C(=O)N[C@@H](CCCCN)C(=O)N[C@H](C(=O)N[C@@H](CCC(=O)O)C(=O)N[C@@H](CCC(=O)O)C(=O)N[C@@H](CC(C)C)C(=O)N[C@@H](CC(C)C)C(=O)N[C@@H](CCCCN)C(=O)N[C@@H](CCCCN)C(=O)N[C@@H](C)C(=O)N[C@@H](CCC(=O)O)C(=O)N[C@@H](CCC(=O)O)C(=O)N[C@@H](CCC(N)=O)C(=O)N[C@@H](CCC(N)=O)C(=O)N[C@@H](CCCCN)C(=O)N[C@@H](CCCCN)C(=O)N[C@@H](CC(N)=O)C(=O)N[C@@H](CCC(=O)O)C(=O)N[C@@H](C)C(=O)N[C@@H](C)C(=O)N[C@@H](C)C(=O)N[C@@H](CCCCN)C(=O)N[C@@H](CCCCNC(=O)CCC(=O)O[C@H]1CC[C@@]2(C)C(=CC[C@H]3[C@@H]4CC[C@H]([C@H](C)CCCC(C)C)[C@@]4(C)CC[C@@H]32)C1)C(N)=O)[C@@H](C)CC [LP-126] (Ac-EYEEYEKKIEELEKKIEELLKKAEEQQKKNEAAAKK(Succinyl(4-O-cholesteryl))-NH2) |  | 3.85 | 1.65 | 6.08 | 51 | 92 | 66 |  |  | 
